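Method: 48-hour compound exposure of cells in 96-well plates, five concentrations, linear interpolation of endpoints. At the GI50, growth is halved.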 Activity calls are given as the source filed them. Rule as the data show it: active = GI50 up to about 1.1 µM and inactive = higher.
Key:
Assay in all cases: inhibition of tumour cell growth, NCI panel, 48 h
[1] = system: ACHN
[2] = system: HCT-116
[3] = system: HCT-15
[4] = system: HOP-92
[5] = system: IGROV-1
[6] = system: LOX IMVI
[7] = system: LXFL 529
[8] = system: NCI-H460
[9] = system: OVCAR-4
[10] = system: RXF 393
[11] = system: SF-295
[12] = system: SN12C
[13] = system: UACC-257
[14] = system: UACC-62
[15] = system: NCI-H23
[16] = system: UO-31
[17] = system: DU-145
[18] = system: MCF7
[19] = system: MDA-N
[20] = system: T47D

Structure (SMILES) | GI50 [1] | GI50 [2] | GI50 [3] | GI50 [4] | GI50 [5] | GI50 [6] | GI50 [7] | GI50 [8] | GI50 [9] | GI50 [10] | GI50 [11] | GI50 [12] | GI50 [13] | GI50 [14] | GI50 [15] | GI50 [16] | GI50 [17] | GI50 [18] | GI50 [19] | GI50 [20]
Cn1cc(C(=O)c2ccccc2)c2ccccc2c1=O | > 100 µM (inactive) | > 100 µM (inactive) | > 100 µM | 62.8 µM (inactive) | > 100 µM (inactive) | > 100 µM (inactive) | 89.3 µM (inactive) | > 100 µM (inactive) | > 100 µM (inactive) | > 100 µM (inactive) | 93.5 µM (inactive) | > 100 µM (inactive) | > 100 µM (inactive) | 49.2 µM (inactive) | – | – | – | – | – | –
Cc1cc2c(=O)c(C)n[nH]c2c(C#N)c1C | > 100 µM (inactive) | > 100 µM (inactive) | > 100 µM | 29.4 µM (inactive) | > 100 µM (inactive) | > 100 µM (inactive) | > 100 µM (inactive) | > 100 µM (inactive) | – | > 100 µM (inactive) | > 100 µM (inactive) | > 100 µM (inactive) | > 100 µM (inactive) | > 100 µM (inactive) | > 100 µM (inactive) | > 100 µM (inactive) | – | – | – | –
CSC1=Nc2ccccc2N=C(c2ccc(Cl)cc2)C1 | 36.6 µM (inactive) | 26.5 µM (inactive) | 26.9 µM | – | 22.8 µM (inactive) | 27.1 µM (inactive) | 45 µM (inactive) | 40.2 µM (inactive) | > 100 µM (inactive) | 20.4 µM (inactive) | 43.9 µM (inactive) | 40.5 µM (inactive) | 27.7 µM (inactive) | 42.8 µM (inactive) | 31.7 µM (inactive) | 24.5 µM (inactive) | – | – | – | –
COc1cc(C(CN)N(C)C)cc(OC)c1OC (stereo not given) | > 100 µM (inactive) | > 100 µM (inactive) | > 100 µM | > 100 µM (inactive) | > 100 µM (inactive) | > 100 µM (inactive) | – | > 100 µM (inactive) | > 100 µM (inactive) | > 100 µM (inactive) | > 100 µM (inactive) | 49.2 µM (inactive) | > 100 µM (inactive) | > 100 µM (inactive) | > 100 µM (inactive) | > 100 µM (inactive) | > 100 µM (inactive) | > 100 µM (inactive) | > 100 µM (inactive) | > 100 µM (inactive)
CC1=NN(C(=O)CC(=O)Nc2ccccc2F)C(=O)C1/N=N/c1ccccc1[N+](=O)[O-] (stereo not given) | – | > 100 µM (inactive) | > 100 µM | – | > 100 µM (inactive) | – | > 100 µM (inactive) | – | 70.6 µM (inactive) | 45.1 µM (inactive) | > 100 µM (inactive) | > 100 µM (inactive) | 97.3 µM (inactive) | 26.2 µM (inactive) | 94.6 µM (inactive) | 81.1 µM (inactive) | – | – | – | –
C=C1CN2CCc3c([nH]c4ccccc34)C2CC1CC(=O)N(C)C (stereo not given) | > 309 µM (inactive) | > 309 µM (inactive) | > 309 µM | 126 µM (inactive) | > 309 µM (inactive) | > 309 µM (inactive) | > 309 µM (inactive) | > 309 µM (inactive) | – | > 309 µM (inactive) | > 309 µM (inactive) | > 309 µM (inactive) | > 309 µM (inactive) | > 309 µM (inactive) | > 309 µM (inactive) | – | – | – | – | –
O=C(O)C1C(C(=O)O)C(C(=O)O)C1C(=O)O (stereo not given) | > 100 µM (inactive) | > 100 µM (inactive) | > 100 µM | > 100 µM (inactive) | > 100 µM (inactive) | > 100 µM (inactive) | – | > 100 µM (inactive) | > 100 µM (inactive) | > 100 µM (inactive) | > 100 µM (inactive) | > 100 µM (inactive) | > 100 µM (inactive) | > 100 µM (inactive) | > 100 µM (inactive) | > 100 µM (inactive) | > 100 µM (inactive) | > 100 µM (inactive) | > 100 µM (inactive) | > 100 µM (inactive)
CN(/N=C\c1ccc2ccccc2c1)C1=NCCCCN1 | 33.7 µM (inactive) | 24.9 µM (inactive) | 30.6 µM | 0.124 µM (active) | 26.5 µM (inactive) | 13.6 µM (inactive) | – | 17.2 µM (inactive) | 30.2 µM (inactive) | 12.5 µM (inactive) | 15.7 µM (inactive) | 18.5 µM (inactive) | 16.4 µM (inactive) | 27.2 µM (inactive) | 29.8 µM (inactive) | 13.8 µM (inactive) | 54.2 µM (inactive) | 18.2 µM (inactive) | 16.3 µM (inactive) | 31.6 µM (inactive)
O=C(CC(C(=O)c1cccs1)c1ccsc1)c1ccccc1 (stereo not given) | 69.5 µM (inactive) | 38.3 µM (inactive) | 48.1 µM | > 100 µM (inactive) | > 100 µM (inactive) | > 100 µM (inactive) | – | 51.4 µM (inactive) | 24 µM (inactive) | 61 µM (inactive) | > 100 µM (inactive) | > 100 µM (inactive) | > 100 µM (inactive) | 50.7 µM (inactive) | 26.4 µM (inactive) | 37.8 µM (inactive) | > 100 µM (inactive) | 30.7 µM (inactive) | 37.5 µM (inactive) | 24.7 µM (inactive)
CC1=C(C)C1[N+](=O)[O-] | > 100 µM (inactive) | > 100 µM (inactive) | > 100 µM | > 100 µM (inactive) | > 100 µM (inactive) | > 100 µM (inactive) | – | > 100 µM (inactive) | > 100 µM (inactive) | > 100 µM (inactive) | > 100 µM (inactive) | > 100 µM (inactive) | > 100 µM (inactive) | > 100 µM (inactive) | > 100 µM (inactive) | > 100 µM (inactive) | > 100 µM (inactive) | > 100 µM (inactive) | > 100 µM (inactive) | > 100 µM (inactive)
CSc1nc(C)cc(Nc2ccc(O)c(CN3CCOCC3)c2)n1 | > 100 µM (inactive) | > 100 µM (inactive) | > 100 µM | 62.8 µM (inactive) | > 100 µM (inactive) | > 100 µM (inactive) | – | > 100 µM (inactive) | > 100 µM (inactive) | > 100 µM (inactive) | > 100 µM (inactive) | > 100 µM (inactive) | > 100 µM (inactive) | > 100 µM (inactive) | > 100 µM (inactive) | 71 µM (inactive) | > 100 µM (inactive) | > 100 µM (inactive) | > 100 µM (inactive) | 71.9 µM (inactive)
CN(C)/C(=N/C(=O)Nc1ccccc1)SCc1ccccc1 | > 100 µM (inactive) | – | > 100 µM | – | > 100 µM (inactive) | > 100 µM (inactive) | > 100 µM (inactive) | – | > 100 µM (inactive) | 58.9 µM (inactive) | > 100 µM (inactive) | > 100 µM (inactive) | > 100 µM (inactive) | > 100 µM (inactive) | > 100 µM (inactive) | > 100 µM (inactive) | – | – | – | –
O=C(O)CC12C3C4C5C3C1C5C42 (stereo not given) | > 100 µM (inactive) | > 100 µM (inactive) | > 100 µM | – | > 100 µM (inactive) | > 100 µM (inactive) | > 100 µM (inactive) | > 100 µM (inactive) | > 100 µM (inactive) | – | > 100 µM (inactive) | > 100 µM (inactive) | > 100 µM (inactive) | > 100 µM (inactive) | > 100 µM (inactive) | 68.9 µM (inactive) | – | – | – | –
Cc1ccc(Nc2nc3[nH]ccc3c(=O)[nH]2)cc1 | > 100 µM (inactive) | > 100 µM (inactive) | 87.5 µM | > 100 µM (inactive) | > 100 µM (inactive) | > 100 µM (inactive) | – | > 100 µM (inactive) | > 100 µM (inactive) | 14.5 µM (inactive) | 72.9 µM (inactive) | > 100 µM (inactive) | > 100 µM (inactive) | 93.8 µM (inactive) | > 100 µM (inactive) | 57.3 µM (inactive) | 53.6 µM (inactive) | > 100 µM (inactive) | > 100 µM (inactive) | 56.1 µM (inactive)
CC(C)(C)C(=O)/C=C/c1cccc(Oc2ccccc2)c1 | 15.2 µM (inactive) | 10.5 µM (inactive) | 19.4 µM | – | 28.2 µM (inactive) | – | 18.1 µM (inactive) | 16 µM (inactive) | – | 15 µM (inactive) | 11.8 µM (inactive) | 13.2 µM (inactive) | 14 µM (inactive) | – | > 10 µM (inactive) | 14.4 µM (inactive) | – | – | – | –
CC(=O)Oc1ccc(OC(Oc2ccccc2)c2ccccc2)cc1 (stereo not given) | 25.2 µM (inactive) | 24.9 µM (inactive) | 33.9 µM | 19 µM (inactive) | 32.6 µM (inactive) | 21.6 µM (inactive) | – | 21.6 µM (inactive) | 33.7 µM (inactive) | 26.1 µM (inactive) | 29.6 µM (inactive) | 15 µM (inactive) | 32.2 µM (inactive) | 20.7 µM (inactive) | 17.7 µM (inactive) | 26.8 µM (inactive) | 36.9 µM (inactive) | 35.4 µM (inactive) | 21.3 µM (inactive) | 39.9 µM (inactive)
CN/C(=N\CCSCc1nc[nH]c1C)NC#N [CIMETIDINE] | > 100 µM (inactive) | > 100 µM (inactive) | > 100 µM | > 100 µM (inactive) | > 100 µM (inactive) | > 100 µM (inactive) | – | > 100 µM (inactive) | 99.5 µM (inactive) | > 100 µM (inactive) | > 100 µM (inactive) | > 100 µM (inactive) | > 100 µM (inactive) | > 100 µM (inactive) | > 100 µM (inactive) | > 100 µM (inactive) | > 100 µM (inactive) | > 100 µM (inactive) | > 100 µM (inactive) | > 100 µM (inactive)
